Columns and labels:
[1] = system: CD5 CAR T-cells; test: Expansion of CD5 CAR T-cells in the presence of kinase inhibitors; type: cell-based, human; settings: for frequencies of minimally differentiated, naïve-like T-cells (differentiation of CD5 CAR T-cells): inhibitor added on day of viral transduction, replenished every 2-3 days, vs control CD5 CAR T-cells expanded in the absence of inhibitors, FIG. 1A
Text: Pazopanib and gefitinib had less impact on the differentiation of CD5 CAR T-cells. […] No such effect was observed upon expansion of control non-transduced T-cells in the presence of the same inhibitors, indicating the effect is CAR-specific.

[2] = system: CYP3A; settings: cited from earlier work

CC(C)(C)n1nc(-c2ccc(Cl)cc2)c2c(N)ncnc21 [pp2]
CD5 CAR T-cell expansion ([1]; in presence of inhibitor, compared with non-transduced control T-cells, FIG. 1B): promoted robust CD5 CAR T-cell expansion | frequencies of minimally differentiated, naïve-like T-cells (differentiation of CD5 CAR T-cells) [1]: higher frequencies

COc1cc2ncnc(Nc3ccc(F)c(Cl)c3)c2cc1OCCCN1CCOCC1 [gefitinib]
frequencies of minimally differentiated, naïve-like T-cells (differentiation of CD5 CAR T-cells) [1]: less impact

Cc1nc(Nc2ncc(C(=O)Nc3c(C)cccc3Cl)s2)cc(N2CCN(CCO)CC2)n1 [dasatinib]
metabolism in the liver by the CYP3A [2]: extensive metabolism

— patent US20240382521A1, “METHODS OF ENGINEERING IMMUNE CELLS HAVING REDUCED FRATRICIDAL ACTIVITY” (Baylor College of Medicine, priority 2021, published 2024)
